# Experimental data as given in ChEMBL document CHEMBL4613259, “Biosynthesis of Amino Acid Derived α-Pyrones by an NRPS-NRPKS Hybrid Megasynthetase in Fungi” (J Nat Prod, 2020).
# Activity calls are given as the source filed them. The rule behind the calls is not given here.
# Tested on: T47D
# Assay: Growth inhibition of human T47D cells
# Assay type: functional, cell-based
row,IC50,SMILES
1,9.2 µg/mL,COc1cc([C@H](Cc2ccccc2)NC(C)=O)oc(=O)c1

# Tested on: Candida albicans
# Assay: Antifungal activity against Candida albicans SC5314 up to 100 ug/ml after 48 hrs by microdilution assay
# Assay type: functional, organism-based
row,SMILES,Activity
1,COc1cc([C@H](Cc2ccccc2Cl)NC(C)=O)oc(=O)c1,inactive
2,COc1cc([C@H](Cc2ccc(Cl)cc2)NC(C)=O)oc(=O)c1,inactive
3,COc1cc([C@H](Cc2ccccc2)NC(C)=O)oc(=O)c1,inactive
4,COc1cc([C@H](Cc2ccc(Br)cc2)NC(C)=O)oc(=O)c1,inactive
5,COc1cc([C@H](Cc2cccc(Cl)c2)NC(C)=O)oc(=O)c1,inactive
6,COc1cc([C@H](Cc2ccc(C)cc2)NC(C)=O)oc(=O)c1,inactive
7,COc1cc([C@H](Cc2ccc(F)cc2)NC(C)=O)oc(=O)c1,inactive

# Tested on: Aspergillus nidulans
# Assay: Growth inhibition of Aspergillus nidulans at 0 to 300 ug/ml incubated for 4 days
# Assay type: functional, organism-based
row,SMILES,growth inhibition (GI)
1,N[C@@H](Cc1ccccc1)c1cc(O)cc(=O)o1,Active
